Measurements from patent US20190030018A1 (Celgene Corporation, priority 2017, published 2019).
Values after ≈ are worked out from the molar mass of the structure shown. Read-outs that look alike come from different tables or passages of the source.

How the values were obtained:
[1] = system: GSPT1 and mTORC1 effectors in BON cells; assay: Western blot of BON cell lysates after 120 h treatment; type: cell-based
Description: BON cells were cultured in DMEM: F12K media containing 10% fetal bovine serum and penicillin/streptomycin antibiotics. […] Cells were harvested and probed with antibodies for western blots and imaged using a Li-Cor Odyssey imaging system. All total and phosphorylated antibodies were obtained from Cell Signaling Technology.

[2] = system: GSPT1, Mcl-1, Bcl-2, cleaved caspase 3 in KG-1 cells; assay: KG-1 western blots, 16 h; type: cell-based
Description: KG-1 cells were seeded in 6 well tissue culture plates at 500,000 cells per mL, 4 mL per well. […] Cells were then washed twice with cold PBS and lysed with M-PER lysis buffer (Thermo) supplemented with 150 mM NaCl and Halt protease and phosphatase inhibitor cocktail (Thermo) on ice for 30 min. Crude lysates were clarified by centrifugation (14000 rpm, 10 min, 4° C.) and total protein quantified by BCA assay. GSPT1 (Abcam, ab49878), Mcl-1 (CST, 4572), Bcl-2 (CST, 4223), cleaved caspase 3 (CST, 9664), and GAPDH (Santa Cruz, sc-47724) levels were probed by western and imaged on a LiCor infrared imager.

BMMCs from MDS patients = assay: Ex vivo liquid culture of BMMCs from MDS patients, Compound 1 with everolimus (viable cell count); type: cell-based, human
Description: Cultures were maintained for 1 week and cell numbers were measured by viable cell count on days 1, 3 and 7 of culture.

physchem [3] = type: physicochemical; details: 25 °C, aqueous with cosolvent or surfactant or cyclodextrin, thermodynamic from solid, Solubility at 25° C. (mg/mL)
Description: Two studies were performed to evaluate the supersaturation risks of Kleptose based formulations. […] The second study is intended to evaluate the kinetics of drug precipitation in Formulation Ib.
In this experiment, ten solutions were prepared by dissolving Kleptose and formic acid in WFI. The Kleptose concentration in all the ten solutions varied from 30 mg/mL to 250 mg/mL, while the formic acid concentration was kept constant at 1.65 mg/mL as used in the bulk solution of formulation Ib. […] Then the sample of each solution was taken and centrifuged for assay testing.

[4] = GA0087 PDX model ex vivo 3D methylcellulose CellTiter-Glo cell viability assay (IC50, matrix combination, Combination Index)
Description: (§1) Materials and Methods: The stomach cancer cell line GA0087 was used in this study. […] Culture media was purchased from GIBCO or Sigma, USA.
(§2) Everolimus was obtained from Selleck. Cisplatin was used as a reference drug, and was obtained from Hospira Australia pty Ltd.
(§3) PDX tumor models were maintained at Crownbio HuPrime animal facility. Tumor growth was monitored weekly. Tumor volumes were measured in two dimensions using a caliper, and the volume was expressed in mm^3 using the formula: V=0.5 a×b^2 where a and b are the long and short diameters of the tumor, respectively. • 2. Mouse xenografts at tumor volume around 800 mm^3 were housed with sterile surgical tools and tumor tissue was minced into tiny pieces with scissors in small amount of PBS on a new tissue culture plate. • 3. The cell suspension was filtered through Falcon cell strainer. The nylon mesh was washed 3-5 times with PBS. • 4. The cell suspension was centrifuged at 1000 rpm for 5 minutes and the pellet was washed with PBS and centrifuged again. • 5. Red blood cells were removed using red blood cell lysis buffer. • 6. The cell suspension was centrifuged at 1000 rpm for 5 minutes and the pellet was washed with PBS and centrifuged again. • 7. The cell pallet was re-suspended with appropriate cell culture media for different cells. • 8. Cells were counted with Countstar by trypan blue exclusion.
(§4) Day −1: Cell Plating • 1. The cells were harvested during the logarithmic growth period. The harvested cells were cultured with appropriate cell media and centrifuged at 1000 rpm for 3 minutes. […] (Cell concentration was adjusted according to the data base or density optimization assay). • 3. 3.5 mL of cell suspension was mixed with 6.5 mL of 1% methylcellulose. […] 90 μL cell suspensions were added to 96-well plates according to plate map with final cell density. Two duplicate plates were set up: one for day 0 reading (T0) and the other was cultured in incubator for reading at the end point.
(§5) Day 0: T0 Plate Reading and Compound Treatment • 5.10 μL culture medium was added to T0 plate in each well for T0 reading. • 6.100 μl CellTiter-Glo® Reagent was added to each well. • 7. The contents were mixed for 2 minutes on an orbital shaker to facilitate cell lysis. • 8. The plates were allowed to incubate at room temperature for 10 minutes to stabilize luminescent signal. • 9. A backseal black sticker was placed to the bottom of each plate. • 10. The luminescence was read using EnVision Multi Label Reader. • 11.
(§6) The solutions were stored at −20° C. […] The response score was calculated by normalizing to DMSO control. The combination index (CI) was calculated using Chou and Talalay method, wherein a CI of less than 1 indicates synergy. Cisplatin was used as control in the single compound dose response, but was not included in the combination test.
(§7) After drug incubation, pictures for representative wells were taken using a phase contrast microscope. • 13. 100 μL CellTiter-Glo® Reagent was added to each well. • 14. Contents were mixed for 2 minutes on an orbital shaker to facilitate cell lysis. • 15. The plates were allowed to incubate at room temperature for 10 minutes to stabilize luminescent signal. • 16. Backseal black sticker was placed to the bottom of each plate. • 17. Luminescence was recorded using EnVision Multi Label Reader.
(§8) In order to calculate IC50, a dose-response curve was fitted using nonlinear regression model with a sigmoidal dose response. The formula of surviving rate is shown below, and the IC50 was automatically produced by GraphPad Prism 5.0.
(§9) The surviving rate (%)=(LumTest article−LumMedium control)/(LumNone treated−LumMedium control)×100%.

[5] = system: stomach cancer cell line GA0087; assay: as above
Description: as §1, §2, §3, §4, §5, §6, §7, §8, §9

[6] = system: caspase-3 activation and GSPT1 degradation in BMMCs from a MDS patient; assay: Apoptosis and GSPT1 degradation by flow cytometry 24 hours after exposure; type: cell-based, human; details: 24 hours exposure
physchem [7] = type: physicochemical; details: organic solvent or mixture, thermodynamic from solid, drug solubility in formic acid
Description: A solvent screen was conducted to identify suitable Class 3 solvents listed in the ICH (International Conference on Harmonisation) Q3C Guidance as the Class 3 solvents have a higher permitted daily exposure (PDE) level of 50 mg/day. A good solvent candidate was considered to have 1) good miscibility with water and 2) sufficiently low boiling point so that it can be easily removed during the lyophilization process.

[8] = system: IDH2 mutant cell line TF1-R140Q; assay: Proliferation (total, HSC and progenitor cell count) in the TF1 assay; type: cell-based
Description: Cells were plated at a density of 0.2e^6 cells/ml of 2 ml culture in 6 well plates.
TF1 cells were cultured in the following media: RPMI containing HEPES and L-glutamine, 10% FBS, Pen/Strep, G418 (final conc 500 μg/ml), and GM-CSF (final conc 5 ng/ml). The cells were cultured for 7 days, with or without compound treatment as described in FIG. 91.
For the hemoglobinization assay, TF1 cells were washed three times with PBS to remove residual GM-CSF then plated at (100,000 cells/ml). Cells were then induced to differentiate using EPO (2 unit/ml). Induction continued for 7 days with changing media on 4th day and adding media with fresh EPO. The cell pellets were collected and imaged for hemoglobinization content (as a surrogate for differentiation into blood lineage). Cells were pelleted, washed, stained with a panel of antibodies and analyzed by flow cytometry, using the following antibodies: […]

[9] = system: peripheral blood mononuclear cells (PBMCs) from myelofibrosis patients; assay: Colony forming assay using myelofibrosis patient samples; type: cell-based, human
Description: The following samples were used:
MF13: De novo MF, characterized by JAK2 wt, FLT3 wt, NPM1 wt, CEBPA wt
MF14: De novo MF, characterized by JAK2 wt, CALR exon9 mut, ASXL1 wt, MPLwt

[10] = system: human QGP1 pancreatic somatostatinoma xenografts; details: mouse, in vivo
Description: Treatment began on Day 1 in nine groups of mice (n=10) with established subcutaneous QGP1 tumors. […] Tumors were measured using calipers twice each week to the end of the study on Day 52. Three tumors at or near the group median tumor volume 2000 mm^3 endpoint were sampled from each group.
Treatment efficacy was based on tumor growth inhibition (TGI), defined as the difference between the final (Day 52) median tumor volumes (MTVs) of treated and control mice. The results were analyzed utilizing the Mann-Whitney U-test, and were deemed statistically significant at P≤0.05. Drug tolerability was assessed by body weight measurements and by frequent observation of treated animals.

[11] = system: primary human tumor xenograft model GA0087; assay: HuPrime gastric cancer xenograft GA0087 model, in vivo efficacy; parameters: species or system female BALB/c nude mice; details: single agent
Description: Tumor fragments from stock mice were harvested and used for inoculation into mice. Each mouse was inoculated subcutaneously at the right flank with primary human tumor xenograft model GA0087 tumor fragment (P7, 2-3 mm in diameter) for tumor development. […] After tumor inoculation, the animals were checked daily for morbidity and mortality. At the time of routine monitoring, the animals were checked for any effects of tumor growth and treatments on normal behavior such as mobility, food and water consumption, body weight gain/loss, eye/hair matting and any other abnormal effect. Death of euthanized mouse was recorded. All groups were terminated on Day 40. Three tumors in each group, with tumor volume near median of each group were collected. Plasma of the same mice were collected. For comparison among three or more groups, one-way ANOVA was performed followed by multiple comparison procedures. All data were analyzed using SPSS 18.0. P values <0.05 is considered to be statistically significant.

With `O=C1CCC(N2Cc3cc(CNC(=O)C(F)(F)c4ccc(Cl)cc4)ccc3C2=O)C(=O)N1` (stereo not drawn) [Compound 1, 2-(4-chlorophenyl)-N-((2-(2,6-dioxopiperidin-3-yl)-1-oxoisoindolin-5-yl)methyl)-2,2-difluoroacetamide] the GSPT1 degradation [1] was “dose dependent GSPT1 degradation”, the “effect on mTORC1 effectors (p4EBP1, phosphorylation of S6)” value [1] was “no direct effect” and the Mcl-1 levels [2] was “reduce levels of Mcl-1”. For the same molecule, the “effect of single agent” value (BMMCs from MDS patients; 37 nM) was “No effect”, the “reduction of cell numbers” value (BMMCs from MDS patients; 37 nM, after 3 days of culture) was ~70% and the cell number decrease (BMMCs from MDS patients; higher concentrations) was “up to 95%”. It also gave a solubility at 72 h (physchem [3]) of 0.086 mg/mL (≈ 0.186 mM), an IC50 ([4]; read-out: Absolute IC50, GA0087-1st experiment) of 20.3 nM and an IC50 ([4]; read-out: Absolute IC50, GA0087-2nd experiment) of 16.4 nM. The IC50 ([4]; read-out: Relative IC50, GA0087-1st experiment) was 16.3 nM, the IC50 ([4]; read-out: Relative IC50, GA0087-2nd experiment) was 15.2 nM and the “Maximal Inhibition” value ([5]; GA0087-1st experiment) was 90.71%. For the same molecule, the “Maximal Inhibition” value ([5]; GA0087-2nd experiment) was 92.41%, the “activity in the GA0087 model” value ([5]; ex vivo 3D assay, 7 days, single agent) was “shows activity” and the “Caspase 3 activation” value [6] was “activated”. The GSPT1 degradation [6] was “degraded”, the solubility (physchem [7]) was ~170 mg/mL (≈ 368 mM) and the “proliferation (total, HSC and progenitor cell count)” value [8] was “inhibition of proliferation”. For the same molecule, the “number of colony forming cells” value ([9]; 14 days in methocult media, samples MF13, MF14) was “reduced by Compound 1 in a dose dependent manner”, the “IC50 in colony forming assay” value ([9]; compared with samples from healthy volunteers) was “lower than IC50s observed in samples from healthy volunteers” and the weight loss [10] was 1.6-6.8%. The “tumor growth inhibition (mean tumor volume)” value [11] was “showed tumor growth inhibition”, the anti-tumor activity ([11]; 1.25 mg/kg and 2.5 mg/kg) was “moderate anti-tumor activity” and the anti-tumor activity ([11]; 5 mg/kg) was “prominent anti-tumor activity”.
